From patent US20150246056A1, “METHODS FOR TREATING OR PREVENTING SYMPTOMS OF HORMONAL VARIATIONS” (priority 2006, published 2015)
Like-named read-outs stand apart in the source and are kept apart here.

Experiments:
[1] = test system: hot flashes or other symptoms of hormonal variations
hot flashes = conditions: cited from earlier work; for minimizing the occurrence and severity of hot flashes compared with placebo: randomized clinical trials (Loprinzi 2000; Stearns 2003)
D2 dopamine receptor = D2 dopamine receptor (Homo sapiens, UniProt P14416); conditions: serial PET scans; cited from earlier work
[2] = target: dopamine type 2 (D2) receptor (Homo sapiens, UniProt P14416); conditions: cited from earlier work
α1-adrenergic receptors = conditions: cited from earlier work
α2-adrenergic receptors = conditions: cited from earlier work
D1 dopamine receptors = D1 dopamine receptors (Homo sapiens, UniProt P21728); conditions: cited from earlier work
[3] = Patient 2, risperidone 2 mg per day
[4] = Patient 3, risperidone 1 mg daily resumed

Chain of D1 dopamine receptors (P21728 whole entry): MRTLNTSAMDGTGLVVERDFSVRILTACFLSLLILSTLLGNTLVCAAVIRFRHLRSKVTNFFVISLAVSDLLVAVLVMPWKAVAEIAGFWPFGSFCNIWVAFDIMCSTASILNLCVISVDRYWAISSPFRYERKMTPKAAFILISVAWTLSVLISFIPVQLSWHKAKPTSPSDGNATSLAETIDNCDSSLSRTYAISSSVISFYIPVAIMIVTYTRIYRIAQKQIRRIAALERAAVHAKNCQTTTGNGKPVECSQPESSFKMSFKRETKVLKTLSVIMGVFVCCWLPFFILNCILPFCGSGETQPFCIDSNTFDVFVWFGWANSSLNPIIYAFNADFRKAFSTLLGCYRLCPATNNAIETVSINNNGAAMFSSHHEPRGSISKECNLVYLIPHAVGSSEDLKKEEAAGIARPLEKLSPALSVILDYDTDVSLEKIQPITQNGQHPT
Chain of dopamine type 2 (D2) receptor (P14416 whole entry): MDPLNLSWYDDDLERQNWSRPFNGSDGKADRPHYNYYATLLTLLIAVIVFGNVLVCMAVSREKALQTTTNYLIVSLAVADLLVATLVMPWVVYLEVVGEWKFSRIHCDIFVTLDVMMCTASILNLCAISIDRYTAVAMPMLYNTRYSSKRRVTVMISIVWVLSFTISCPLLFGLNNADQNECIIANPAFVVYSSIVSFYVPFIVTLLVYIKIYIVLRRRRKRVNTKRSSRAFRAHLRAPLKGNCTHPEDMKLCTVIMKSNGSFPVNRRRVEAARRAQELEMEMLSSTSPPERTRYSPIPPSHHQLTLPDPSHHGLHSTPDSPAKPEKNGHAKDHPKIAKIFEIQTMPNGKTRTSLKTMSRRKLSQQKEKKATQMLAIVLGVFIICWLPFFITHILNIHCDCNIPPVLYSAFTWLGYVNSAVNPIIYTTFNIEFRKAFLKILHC
Chain of D2 dopamine receptor (P14416 whole entry): as above

With `COC(=O)C1=C(C)NC(C)=C(C(=O)OC)C1c1ccccc1[N+](=O)[O-]` [adalate] the “blood pressure after sublingual dose for sudden onsets of high blood pressure” value ([1]; human, in vivo) was “frequently dropped below critical level”.

For `Clc1cccc(Cl)c1N=C1NCCN1` [clonidine], the adverse effects (hot flashes; randomized clinical trials, including dry mouth, dizziness, and blurred vision) is given as “common” and the “efficacy against hot flashes compared with placebo” value (hot flashes; randomized clinical trials, tamoxifen-induced hot flashes (Goldberg 1994; Pandya 2000)) is given as “moderately more efficacious than placebo”.

For `Fc1ccc([C@@H]2CCNC[C@H]2COc2ccc3c(c2)OCO3)cc1` [paroxetine], the “minimizing the occurrence and severity of hot flashes compared with placebo” value (hot flashes) is listed as “more effective than placebo”.

For `OCCOCCN1CCN(C2=Nc3ccccc3Sc3ccccc32)CC1` [quetiapine], the “dissociation from the D2 receptor” value (D2 dopamine receptor) is listed as “rapidly disassociates”.

For `Cc1nc2n(c(=O)c1CCN1CCC(c3noc4cc(F)ccc34)CC1)CCCC2` [risperidone], the “associated symptoms, such as palpitation and anxiety” value ([1]; Patient 1, risperidone 2 mg/day) was “improved significantly”, the “time to reoccurrence of hot flashes after discontinuing the treatment” value ([1]; Patient 1, risperidone 2 mg/day discontinued) was 2 to 3 days and the “frequency of hot flashes” value ([1]; Patient 1, risperidone 2 mg/day, after three days of treatment) was “once per 1-2 weeks”. The “time to alleviation of symptoms after resuming treatment” value ([1]; Patient 1, risperidone resumed) was 3 to 4 days, the “hot flashes after treatment was resumed” value ([1]; Patient 2, risperidone 2 mg daily resumed) was “has not suffered another hot flash since” and the blood pressure [1, 3] was “stabilized”. For the same compound, the sleep [1, 3] was “slept well”, the “occurrence of hot flashes” value ([1]; Patient 2, risperidone 2 mg per day, by day 7) was “completely eliminated” and the “occurrence of hot flashes” value ([1]; Patient 2, risperidone 2 mg per day, two days after starting) was “reduced markedly”. For the same compound, the “time to return of hot flashes and night sweats after treatment was completely discontinued” value ([1]; Patient 2, risperidone tapered off over 2 days) was “two”, the “hot flashes after treatment was resumed” value [1, 4] was “no longer experienced hot flashes” and the “quality of sleep and life” value [1, 4] was “improved”. The “frequency and intensity of hot flashes” value ([1]; Patient 3, risperidone 1 mg per night, three days after starting, seven hot flashes per day before) was “markedly reduced”, the “hot flashes after dose reduction” value ([1]; Patient 3, three months later, risperidone 0.25 mg or less per day) was “still markedly eliminated” and the residual hot flashes ([1]; Patient 4, risperidone 1 mg at bedtime for two days, then 2 mg per night, with hormone replacement therapy, three days after starting) was “completely eliminated”. The blood pressure ([1]; Patient 4, risperidone 2 mg per night) was “stabilized within the normal range”, the “affinity for D2 receptor” value [2] was “high affinity” and the “affinity for α1-adrenergic receptors” value (α1-adrenergic receptors) was “high affinity”. The “affinity for α2-adrenergic receptors” value (α2-adrenergic receptors) was “lower affinities” and the “binding to D1 dopamine receptors” value (D1 dopamine receptors) was “does not bind”.

For `COc1ccc(C(CN(C)C)C2(O)CCCCC2)cc1` (stereo not drawn) [venlafaxine], the “minimizing the occurrence and severity of hot flashes compared with placebo” value (hot flashes) is listed as “more effective than placebo”.

For estrogen, the “response of perimenopausal symptoms to earlier therapies” value ([1]; Patient 3, perimenopausal person) was “responded well”.
